pEC50, pIC50: −log10 of the molar value. ≈ marks a conversion by molar mass, not a printed value. Calls of active or inactive are those of the source. The calls are words filed in the database; no cut-off is given here.
Legend:
[1] = rat, hepatocytes, 20 min, 1 µM
[2] = target: Cytochrome P450 3A4 (Homo sapiens, UniProt P08684); test: Inhibition of CYP3A4 in human liver microsomes using testosterone as a substrate preincubated for 10 mins followed by NADPH addition and measured after 10 mins by LC/MS/MS analysis
Cytochrome P450 3A4, sequence (P08684 whole entry): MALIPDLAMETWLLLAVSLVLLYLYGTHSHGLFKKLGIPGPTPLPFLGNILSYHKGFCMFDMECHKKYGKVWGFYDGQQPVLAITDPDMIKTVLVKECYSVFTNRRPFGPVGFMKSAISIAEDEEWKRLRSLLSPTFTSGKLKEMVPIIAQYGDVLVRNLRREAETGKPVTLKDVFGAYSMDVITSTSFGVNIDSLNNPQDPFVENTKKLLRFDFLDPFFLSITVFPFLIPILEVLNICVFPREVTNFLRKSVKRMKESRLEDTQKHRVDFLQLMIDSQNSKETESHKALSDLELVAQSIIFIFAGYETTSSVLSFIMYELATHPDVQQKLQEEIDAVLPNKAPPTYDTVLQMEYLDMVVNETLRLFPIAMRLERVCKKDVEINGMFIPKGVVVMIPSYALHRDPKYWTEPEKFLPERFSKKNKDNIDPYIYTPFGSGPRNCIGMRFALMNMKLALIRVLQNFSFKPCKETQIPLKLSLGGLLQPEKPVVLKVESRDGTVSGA

[3] = target: T1, Atrial natriuretic peptide receptor 3 (Rattus norvegicus, UniProt P41740); test: Agonist activity at NPRC in rat small mesenteric arteries assessed as vasorelaxation by Organ bath assay; assay type: tissue-based, Artery
T1 sequence (P41740 whole entry): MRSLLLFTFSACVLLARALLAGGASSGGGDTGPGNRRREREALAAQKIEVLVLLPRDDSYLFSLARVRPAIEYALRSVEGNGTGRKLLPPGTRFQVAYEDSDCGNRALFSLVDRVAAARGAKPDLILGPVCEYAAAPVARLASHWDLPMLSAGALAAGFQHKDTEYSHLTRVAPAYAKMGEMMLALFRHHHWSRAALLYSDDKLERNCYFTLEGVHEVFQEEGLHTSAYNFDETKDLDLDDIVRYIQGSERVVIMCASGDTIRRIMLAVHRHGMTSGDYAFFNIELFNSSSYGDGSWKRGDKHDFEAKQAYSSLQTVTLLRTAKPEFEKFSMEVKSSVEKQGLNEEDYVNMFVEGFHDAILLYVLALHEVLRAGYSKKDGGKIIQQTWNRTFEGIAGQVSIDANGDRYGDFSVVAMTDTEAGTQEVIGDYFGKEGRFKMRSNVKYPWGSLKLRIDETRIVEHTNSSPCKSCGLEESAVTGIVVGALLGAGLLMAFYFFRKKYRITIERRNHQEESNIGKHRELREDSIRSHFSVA

[4] = Solubility of compound in PBS at 10 mM after 3 hrs by UV analysis; details: buffer, 10000 µM
[5] = target: T2, Atrial natriuretic peptide receptor 3 (Mus musculus, UniProt P70180); test: Agonist activity at NPRC in knock out mouse mesenteric arteries assessed as vasorelaxation by Organ bath assay; assay type: tissue-based, Artery
T2 sequence (P70180 whole entry): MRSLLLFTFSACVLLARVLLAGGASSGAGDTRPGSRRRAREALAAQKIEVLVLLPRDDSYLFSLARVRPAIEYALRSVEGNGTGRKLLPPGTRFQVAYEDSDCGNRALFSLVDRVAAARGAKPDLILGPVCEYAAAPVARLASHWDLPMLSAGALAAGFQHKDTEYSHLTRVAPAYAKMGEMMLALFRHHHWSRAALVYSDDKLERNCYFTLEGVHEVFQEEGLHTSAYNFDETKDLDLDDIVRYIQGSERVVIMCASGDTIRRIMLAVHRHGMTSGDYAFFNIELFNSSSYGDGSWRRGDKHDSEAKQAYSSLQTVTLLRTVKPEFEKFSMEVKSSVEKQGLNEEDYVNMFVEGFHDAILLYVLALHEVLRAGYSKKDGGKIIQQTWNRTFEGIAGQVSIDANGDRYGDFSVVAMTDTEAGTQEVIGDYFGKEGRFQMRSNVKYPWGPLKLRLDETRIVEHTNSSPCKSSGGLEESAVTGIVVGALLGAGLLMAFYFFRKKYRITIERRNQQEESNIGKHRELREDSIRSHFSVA

[6] = AUC (0 to infinity) in fasted C57BL/6 mouse at 10 mg/kg, po by LC-MS/MS analysis; assay type: ADME, organism-based; parameters: time infinity, dose 10 mg/kg, route po; details: in vivo
[7] = Protein binding in human plasma by equilibrium dialysis assay
[8] = Oral bioavailability in fasted C57BL/6 mouse at 10 mg/kg by LC-MS/MS analysis; assay type: ADME, organism-based; details: in vivo
[9] = AUC (0 to infinity) in fasted C57BL/6 mouse at 3 mg/kg, iv by LC-MS/MS analysis; assay type: ADME, organism-based; parameters: time infinity, dose 3 mg/kg, route iv; details: in vivo
[10] = target: T3, Cytochrome P450 1A2 (Homo sapiens, UniProt P05177); test: Inhibition of CYP1A2 in human liver microsomes using phenacetin as substrate preincubated for 10 mins followed by NADPH addition and measured after 10 mins by LC/MS/MS analysis
T3 sequence (P05177 whole entry): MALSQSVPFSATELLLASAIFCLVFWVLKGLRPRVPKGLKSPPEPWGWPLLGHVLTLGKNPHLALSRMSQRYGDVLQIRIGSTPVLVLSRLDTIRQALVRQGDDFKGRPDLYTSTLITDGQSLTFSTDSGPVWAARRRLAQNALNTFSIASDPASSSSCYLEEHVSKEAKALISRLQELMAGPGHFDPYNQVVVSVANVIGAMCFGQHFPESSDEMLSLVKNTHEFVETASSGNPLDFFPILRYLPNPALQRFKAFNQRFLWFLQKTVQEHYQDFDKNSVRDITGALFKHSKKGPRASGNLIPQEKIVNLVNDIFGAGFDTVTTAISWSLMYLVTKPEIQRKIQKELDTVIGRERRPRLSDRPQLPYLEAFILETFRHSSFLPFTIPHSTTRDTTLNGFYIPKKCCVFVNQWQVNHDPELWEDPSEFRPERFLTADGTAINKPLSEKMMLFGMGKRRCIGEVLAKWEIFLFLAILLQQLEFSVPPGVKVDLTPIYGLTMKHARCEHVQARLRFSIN

[11] = Stability of compound in pooled human plasma assessed as half life measured upto 120 mins by LC/MS/MS analysis; details: 2 h
[12] = target: Cytochrome P450 2C19 (Homo sapiens, UniProt P33261); test: Inhibition of CYP2C19 in human liver microsomes using S-mephenytoin as substrate preincubated for 10 mins followed by NADPH addition and measured after 20 mins by LC/MS/MS analysis
Cytochrome P450 2C19, sequence (P33261 whole entry): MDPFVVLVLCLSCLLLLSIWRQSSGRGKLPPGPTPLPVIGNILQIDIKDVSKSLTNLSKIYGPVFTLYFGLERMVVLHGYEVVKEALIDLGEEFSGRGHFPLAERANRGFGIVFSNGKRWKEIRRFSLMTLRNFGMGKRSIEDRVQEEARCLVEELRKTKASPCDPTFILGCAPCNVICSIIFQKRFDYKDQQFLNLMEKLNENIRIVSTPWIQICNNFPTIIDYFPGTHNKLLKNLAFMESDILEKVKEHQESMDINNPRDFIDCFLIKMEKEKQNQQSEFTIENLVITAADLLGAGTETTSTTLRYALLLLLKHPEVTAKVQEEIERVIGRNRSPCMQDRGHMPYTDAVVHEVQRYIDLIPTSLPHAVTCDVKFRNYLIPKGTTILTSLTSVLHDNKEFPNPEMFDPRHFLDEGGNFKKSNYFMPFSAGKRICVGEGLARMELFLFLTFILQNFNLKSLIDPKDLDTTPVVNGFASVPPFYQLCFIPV

[13] = target: T2, Atrial natriuretic peptide receptor 3; test: Agonist activity at NPRC in wild type mouse mesenteric arteries assessed as vasorelaxation by Organ bath assay; assay type: tissue-based, Artery
[14] = target: Cytochrome P450 2C9 (Homo sapiens, UniProt P11712); test: Inhibition of CYP2C9 in human liver microsomes using diclofenac as substrate preincubated for 10 mins followed by NADPH addition and measured after 10 mins by LC/MS/MS analysis
Cytochrome P450 2C9, sequence (P11712 whole entry): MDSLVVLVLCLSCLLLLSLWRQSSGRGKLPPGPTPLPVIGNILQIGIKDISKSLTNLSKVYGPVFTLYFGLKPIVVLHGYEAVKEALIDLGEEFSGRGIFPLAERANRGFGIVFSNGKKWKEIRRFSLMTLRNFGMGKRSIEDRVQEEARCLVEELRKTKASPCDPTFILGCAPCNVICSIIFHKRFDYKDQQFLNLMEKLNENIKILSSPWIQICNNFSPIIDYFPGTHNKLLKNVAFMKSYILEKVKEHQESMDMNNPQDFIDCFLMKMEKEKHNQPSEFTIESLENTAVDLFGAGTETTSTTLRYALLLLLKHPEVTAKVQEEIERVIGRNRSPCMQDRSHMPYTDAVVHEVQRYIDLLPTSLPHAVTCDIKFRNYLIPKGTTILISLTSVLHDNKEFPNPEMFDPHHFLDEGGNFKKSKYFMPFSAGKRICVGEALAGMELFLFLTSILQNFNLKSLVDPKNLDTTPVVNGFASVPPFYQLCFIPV

[15] = target: T4, Atrial natriuretic peptide receptor 3 (Rattus norvegicus) (UniProt P41740); test: Agonist activity at NPRC in rat aorta assessed as inhibition of cANF4-23 induced vasorelaxation in presence of M372049 by Organ bath assay; assay type: tissue-based; details: filed as agonist
T4 sequence (whole entry): T1 sequence (P41740 whole entry)

[16] = target: T1, Atrial natriuretic peptide receptor 3; test: Agonist activity at NPRC in rat small mesenteric arteries assessed as vasorelaxation preincubated with M372049 for 15 mins followed by compound treatment by Organ bath assay; assay type: tissue-based, Artery
[17] = Initial plasma concentration in fasted C57BL/6 mouse at 3 mg/kg, iv by LC-MS/MS analysis
[18] = Clearance in fasted C57BL/6 mouse at 3 mg/kg, iv by LC-MS/MS analysis; assay type: ADME, organism-based; details: in vivo
[19] = Volume of distribution at steady state in fasted C57BL/6 mouse at 3 mg/kg, iv by LC-MS/MS analysis; assay type: ADME, organism-based; details: in vivo, read-out: Vdss

## CC(=O)Nc1ccc(Nc2ncnc(NCCC(=O)OC(C)(C)C)n2)cc1
[1]
  t1/2: 1.952 h
[2]
  pIC50: < 4.30
[3]
  pEC50: 6.07
[4]
  solubility: 71.17 mg/mL (≈ 191 mM)
[5]
  pEC50: 5.00
[6]
  AUC(0-inf): 653 ng·h/mL
[7]
  PPB: 71%
[8]
  F: 43.8%
[9]
  AUC(0-inf): 448 ng·h/mL
[10]
  pIC50: < 4.30
[11]
  t1/2: > 2 h
[12]
  pIC50: < 4.30
[13]
  pEC50: 5.80
[14]
  pIC50: < 4.30
[15]
  Activity: Active
[16]
  pEC50: 5.06
[17]
  C0: 2330 ng/mL
[18]
  clearance: 112 mL/min/kg
[19]
  Vd: 1.75 L/kg

From ChEMBL document CHEMBL5154815, “A Series of Substituted Bis-Aminotriazines Are Activators of the Natriuretic Peptide Receptor C” (J Med Chem, 2022)
